Patent US20240293413A1, “COMPOUND AND METHOD FOR TREATING CHEMOTHERAPY-RELATED GASTROINTESTINAL SIDE EFFECTS” (ONQUALITY PHARMACEUTICALS CHINA LTD., priority 2021, published 2024)

Columns and labels:
Type in all cases: in vivo
[1] = test system: diarrhea caused by a chemotherapeutic agent in Balb/c mice; test: Examples 343-381 (Table 6): oral versus intravenous CDK inhibitor, relief of diarrhea caused by a chemotherapeutic agent;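 for Relative remission rate: percent of treated mice whose diarrhea grade fell below chemotherapy-group average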
In short: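 Balb/c mice (10 per group) received the CDK inhibitor orally or by tail-vein injection, or vehicle, followed by a chemotherapeutic agent or its solvent. Diarrhea grade was scored daily.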

[2] = test system: Chemotherapeutic agent-caused diarrhea models of Balb/c mice; test: Examples 1-229 (Table 3): oral CDK inhibitor, relief of diarrhea caused by a chemotherapeutic agent;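 note: percent of treated mice whose diarrhea grade fell below chemotherapy-group average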
[3] = test system: diarrhea caused by the continuous administration of a chemotherapeutic agent in Balb/c mice; test: Examples 444-469 (Table 9): oral CDK inhibitor, diarrhea caused by continuous administration of a chemotherapeutic agent
Source text: Balb/c mice were fed for 1 week, and then divided into groups. The experiment was divided into a control group, a chemotherapeutic agent group, and a CDK inhibitor group, each of which comprised 10 mice, to perform the administration experiment, for which the administration dosage, mode, time and frequency were shown in Table 9. The control group: being intragastrically administered with the same solvent as that used in the CDK inhibitor group (the time was shown in Table 9), and then being injected/intragastrically administered with the same solvent as that used in the chemotherapeutic agent group (the administration mode was shown in Table 9): the chemotherapeutic agent group: being intragastrically administered with the same solvent as that used in the CDK inhibitor group (the time was shown in Table 9), and then being injected/intragastrically administered with the chemotherapeutic agent (the type, administration mode, dosage and duration time were shown in Table 9): the CDK inhibitor group: being intragastrically administered with the CDK inhibitor (the time was shown in Table 9), and then being administered with the chemotherapeutic agent (the type, administration mode, dosage and duration time were shown in Table 9).
The scoring of diarrhea can refer to the method of Akinobu Kurita (Cancer Chemother Pharmacol 2000: 46:211-20.), Grade 0: normal feces: Grade 1: mild diarrhea, the stools is slightly wet and soft: Grade 2: moderate diarrhea, loose stools and mild perianal contamination: Grade 3: severe diarrhea, watery stools and accompanied by severe perianal staining (see FIG. 1). It is regarded as effective remission when the diarrhea grading of mice in the CDK inhibitor group is reduced compared with the average diarrhea grading of mice in the chemotherapeutic agent group.
The diarrhea grading of mice was observed and recorded every day. At the end of the experiment, the number of mice in the CDK inhibitor group whose diarrhea grading was lower than that of mice in the chemotherapeutic agent group was recorded. Table 9 lists various animal experiment combinations of chemotherapeutic agents and CDK inhibitors, as well as the corresponding experimental results. (Relative remission rate %=the number of mice in the CDK inhibitor group whose diarrhea has been effectively relieved/the total number of mice in the CDK inhibitor group*100%. The establishment rate of diarrhea model in the chemotherapeutic agent group was 50%-80%, that is, about 5-8 of 10 mice developed diarrhea during the experiment, and there were cases of individual mice death or not developing diarrhea.)

SMILES: CN(C)C(=O)c1cc2cnc(Nc3ccc(N4CCNCC4)cn3)nc2n1C1CCCC1 [Ribociclib]
- Relative remission rate ([1]; Example 352, Etoposide and cisplatin intraperitoneal injection 50 (E) 5 (Cis) mg/kg single, CDK inhibitor intravenous injection 125 mg/kg single, 0.5 h before, cycle 7 days): 10%
- Relative remission rate ([1]; Example 352, Etoposide and cisplatin intraperitoneal injection 50 (E) 5 (Cis) mg/kg single, CDK inhibitor oral 125 mg/kg single, 0.5 h before, cycle 7 days): 40%
- Relative remission rate ([1]; Example 353, Etoposide and cisplatin intraperitoneal injection 50 (E) 5 (Cis) mg/kg single, CDK inhibitor intravenous injection 125 mg/kg single, 4 h before, cycle 7 days): 10%
- Relative remission rate ([1]; Example 353, Etoposide and cisplatin intraperitoneal injection 50 (E) 5 (Cis) mg/kg single, CDK inhibitor oral 125 mg/kg single, 4 h before, cycle 7 days): 40%
- Relative remission rate ([1]; Example 354, Etoposide and cisplatin intraperitoneal injection 50 (E) 5 (Cis) mg/kg single, CDK inhibitor intravenous injection 125 mg/kg single, 8 h before, cycle 7 days): 10%
- Relative remission rate ([1]; Example 354, Etoposide and cisplatin intraperitoneal injection 50 (E) 5 (Cis) mg/kg single, CDK inhibitor oral 125 mg/kg single, 8 h before, cycle 7 days): 60%
- Relative remission rate ([1]; Example 355, Etoposide and cisplatin intraperitoneal injection 50 (E) 5 (Cis) mg/kg single, CDK inhibitor intravenous injection 125 mg/kg single, 12 h before, cycle 7 days): 20%
- Relative remission rate ([1]; Example 355, Etoposide and cisplatin intraperitoneal injection 50 (E) 5 (Cis) mg/kg single, CDK inhibitor oral 125 mg/kg single, 12 h before, cycle 7 days): 60%
- Relative remission rate ([1]; Example 356, Etoposide and cisplatin intraperitoneal injection 50 (E) 5 (Cis) mg/kg single, CDK inhibitor intravenous injection 125 mg/kg single, 24 h before, cycle 7 days): 10%
- Relative remission rate ([1]; Example 356, Etoposide and cisplatin intraperitoneal injection 50 (E) 5 (Cis) mg/kg single, CDK inhibitor oral 125 mg/kg single, 24 h before, cycle 7 days): 50%
- Relative remission rate ([1]; Example 359, Carboplatin (CBP) intraperitoneal injection 120 mg/kg single, CDK inhibitor intravenous injection 200 mg/kg single, 0.5 h before, cycle 10 days): 20%
- Relative remission rate ([1]; Example 359, Carboplatin (CBP) intraperitoneal injection 120 mg/kg single, CDK inhibitor oral 200 mg/kg single, 0.5 h before, cycle 10 days): 60%
- Relative remission rate ([1]; Example 360, Carboplatin (CBP) intraperitoneal injection 120 mg/kg single, CDK inhibitor intravenous injection 200 mg/kg single, 4 h before, cycle 10 days): 20%
- Relative remission rate ([1]; Example 360, Carboplatin (CBP) intraperitoneal injection 120 mg/kg single, CDK inhibitor oral 200 mg/kg single, 4 h before, cycle 10 days): 80%
- Relative remission rate ([1]; Example 361, Carboplatin (CBP) intraperitoneal injection 120 mg/kg single, CDK inhibitor intravenous injection 200 mg/kg single, 8 h before, cycle 10 days): 10%
- Relative remission rate ([1]; Example 361, Carboplatin (CBP) intraperitoneal injection 120 mg/kg single, CDK inhibitor oral 200 mg/kg single, 8 h before, cycle 10 days): 60%
- Relative remission rate ([1]; Example 362, Carboplatin (CBP) intraperitoneal injection 120 mg/kg single, CDK inhibitor intravenous injection 200 mg/kg single, 12 h before, cycle 10 days): 10%
- Relative remission rate ([1]; Example 362, Carboplatin (CBP) intraperitoneal injection 120 mg/kg single, CDK inhibitor oral 200 mg/kg single, 12 h before, cycle 10 days): 60%
- Relative remission rate ([1]; Example 363, Carboplatin (CBP) intraperitoneal injection 120 mg/kg single, CDK inhibitor intravenous injection 200 mg/kg single, 24 h before, cycle 10 days): 10%
- Relative remission rate ([1]; Example 363, Carboplatin (CBP) intraperitoneal injection 120 mg/kg single, CDK inhibitor oral 200 mg/kg single, 24 h before, cycle 10 days): 80%
- Relative remission rate ([1]; Example 376, Gemcitabine (GEM) oral administration 300 mg/kg single, CDK inhibitor intravenous injection 100 mg/kg single, 24 h before, cycle 8 days): 20%
- Relative remission rate ([1]; Example 376, Gemcitabine (GEM) oral administration 300 mg/kg single, CDK inhibitor oral 100 mg/kg single, 24 h before, cycle 8 days): 60%
- relief of diarrhea by oral administration and injection administration ([1]; diarrhea caused by etoposide, etoposide in combination with cisplatin, carboplatin, gemcitabine, gemcitabine in combination with carboplatin, and topotecan, oral administration has the most significant effect): effectively relieve diarrhea
- Relative remission rate (%) ([2]; Example 45, Fluorouracil (5-Fu) intravenous injection 175 mg/kg single, CDK inhibitor oral 200 mg/kg single 0.5 h before, cycle 8 days): 40%
- Relative remission rate (%) ([2]; Example 113, Irinotecan (CPT-11) oral administration 300 mg/kg single, CDK inhibitor oral 100 mg/kg single 24 h before, cycle 11 days): 60%
- Relative remission rate (%) ([2]; Example 167, Docetaxel (DTX) intravenous injection 10 mg/kg single, CDK inhibitor oral 200 mg/kg single 9 h before, cycle 8 days): 80%
- Relative remission rate (%) ([2]; Example 229, Etoposide 60 mg/kg and carboplatin 5 mg/kg intraperitoneal injection single, CDK inhibitor oral 200 mg/kg single, 12 h before, 10 days): 50%
- Relative remission rate ([3]; Example 456, Fluorouracil (5-Fu) intravenous injection 70 mg/kg once a day, for 3 days, CDK inhibitor oral 200 mg/kg once a day, for 3 days, 4 h before, cycle 8 days): 80%
- relieving effect on diarrhea ([3]; continuous administration of fluorouracil and capecitabine for 7 days or above): not significant
- relieving effect on diarrhea ([3]; continuous administration of fluorouracil for less than 7 days): significant relieving effects
